Results as given in PMC4867616, “Imaging of Cerebral Amyloid Angiopathy with Bivalent ^99mTc-Hydroxamamide Complexes” (Scientific Reports, 2016).

Target: T1, Aβ depositions in human CAA brain sections (Homo sapiens, UniProt P05067)
T1 construct: consistent with the immunohistochemical staining pattern observed in the same brain sections with anti-Aβ(1–40) antibody; from tissue; host or cells: post-mortem human brain, autopsy-confirmed CAA cases
Test: In vitro autoradiography of human CAA brain sections
Format: binding
Conditions: for Labeling of Aβ depositions in brain sections from another patient with CAA: patient with CAA (person)
Protocol: (§1) Six micrometer thick serial human brain sections of paraffin-embedded blocks were used for autoradiography. To completely deparaffinize the sections, they were incubated in xylene for 30 min two times and in 100% EtOH for 1 min two times. Subsequently, they were subjected to 1-min incubation in 90% EtOH and 1-min incubation in 70% EtOH, followed by a 5-min wash in water. Each slide was incubated with a 50% EtOH solution of [^99mTc]SB2A or [^99mTc]BT2B (370 kBq/mL) at room temperature for 1 h. […] The sections were washed in 50% EtOH for 3 min two times and exposed to a BAS imaging plate (Fuji Film, Tokyo, Japan) for 2 h. Autoradiographic images were obtained using a BAS5000 scanner system (Fuji Film). After autoradiographic examination, the same sections were immunostained by an antibody against Aβ(1–40) to confirm the presence of Aβ depositions. For immunohistochemical staining of Aβ(1–40), the sections were autoclaved for 15 min in 0.01 M citric acid buffer (pH 6.0) to activate the antigen. After three 5-min incubations in PBS-Tween 20 (PBST), they were incubated with anti-Aβ(1–40) primary antibody (BA27; Wako, Osaka, Japan) at room temperature overnight. Subsequently, they were incubated in PBST for 5 min three times, and incubated with biotinylated goat anti-mouse IgG (Wako) at room temperature for 3 h. After three 5-min incubations in PBST, the sections were incubated with Streptavidin-Peroxidase complex at room temperature for 30 min. After three 5-min incubations in PBST, they were incubated with diaminobenzidine (Merck, Hesse, Germany) as a chromogen for 5 min. After washing with water, the sections were observed under a microscope (BIOREVO BZ-9000; Keyence Corp., Osaka, Japan).
as §1, with “In vitro autoradiography of human CAA brain sections. Postmortem brain tissues from autopsy-confirmed cases of CAA (person, and person) and a control (person) were obtained from the Graduate School of Medicine, Kyoto University, National Cerebral and Cardiovascular Center, and BioChain Institute Inc. (California, USA), respectively. Experiments were performed according to the regulations of the ethics committee of Kyoto University. Six” for “Six”, “serial” for “serial human brain”, “Aβ(1-40)” for “Aβ(1–40)”, “Aβ(1-40),” for “Aβ(1–40),”, “anti-Aβ(1-40)” for “anti-Aβ(1–40)”, “After three 5-min incubations in PBST, the sections were incubated with Streptavidin-Peroxidase complex at room temperature for 30 min. After three 5-min incubations in PBST, they were incubated with diaminobenzidine (Merck, Hesse, Germany) as a chromogen for 5 min. After washing with water, the sections were observed under a microscope (BIOREVO BZ-9000; Keyence Corp., Osaka, Japan).” left out

T1 sequence (P05067 672-711 limits assumed): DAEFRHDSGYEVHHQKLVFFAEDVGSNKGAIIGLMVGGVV

Blocking of labeling of Aβ depositions with excess nonradioactive PIB (adjacent CAA brain section, PIB 1.0 mM)	Accumulation of radioactivity in control brain sections (autoradiography) (brain section from a healthy control (person))	Labeling of Aβ depositions in CAA brain sections (autoradiography) (brain section from a patient with CAA (person), 370 kBq/mL, 1 h)	Labeling of Aβ depositions in brain sections from another patient with CAA	Structure (SMILES)
blocked to a large extent	almost no accumulation of radioactivity	intensively labeled Aβ depositions	intensively labeled Aβ depositions	CN(C)c1ccc(/C=C/c2ccc(C3=N[O][99Tc-]4(=[O])([NH]3)[NH2+]C(c3ccc(/C=C/c5ccc(N(C)C)cc5)cc3)=N[O]4)cc2)cc1 (single isomer, unassigned) [[^99mTc]SB2A]
–	–	–	intensively labeled Aβ depositions	CN(C)c1ccc(-c2nc3ccc(C4=N[O][99Tc-]5(=[O])([NH]4)[NH2+]C(c4ccc6nc(-c7ccc(N(C)C)cc7)sc6c4)=N[O]5)cc3s2)cc1 [[^99mTc]BT2B]
